Measured values: patent publication US9187773B2, “Method for improving acid tolerance of Propionibacterium acidipropionici” (Jiangnan University, priority 2012, dated 2015)

Tests used:
Type in all cases: cell-based, Propionibacterium acidipropionici
P. acidipropionici [1] = assay: PA production of P. acidipropionici with amino acid addition (fermentation, HPLC analysis)
P. acidipropionici [2] = assay: Acid tolerance of P. acidipropionici with amino acid addition (growth in seed medium containing PA); settings: for Acid tolerance: seed medium with 2.5-5 g/L PA, 30° C., 40 h; for increase of the acid concentration that P. acidipropionici can tolerate: with addition of the amino acid, versus 2.5 g/L PA without amino acid
Procedure: The present invention provides a method for improving acid tolerance of P. acidipropionici by adding arginine and/or aspartic acid in the culture.
P. acidipropionici was first inoculated with sterile seed medium in anaerobic jars. The anaerobic jars were incubated at 30° C. for 60 h. To determine the effects of adding amino acids on acid tolerance of P. acidipropionici, the culture broth was transferred into anaerobic jars containing fresh seed medium with 2.5-5 g/L PA, 5-30 mM arginine and/or 5-30 mM aspartic acid added. The strains were then incubated at 30° C. for 40 h.
The P. acidipropionici was bought from China General Microbiological Culture Collection, and the strain code is CGMCC 1.2230.
The seed medium: 10 g/L yeast extract, 5 g/L tryptic soy broth, 1.5 g/L KH2PO4, 2.5 g/L K2HPO4, pH 7.0.
(§1) To determine the effects of adding arginine on acid tolerance of P. acidipropionici, the strains were inoculated with an inoculum size of 1% (v/v) into anaerobic jars containing 100 mL sterile seed medium. The anaerobic jars were incubated at 30° C. for 60 hours. And then, the culture broth was transferred into anaerobic jars containing fresh seed medium with 2.5-5 g/L PA and 0-30 mM arginine by an inoculum size of 1% (v/v) and incubated at 30° C. for 40 hours.
as §1, with “of adding aspartic acid on acid” for “of adding arginine on acid”, “jars containing (volume: 100 mL) 100 mL” for “jars containing 100 mL”, “0-30 mM aspartic acid by an” for “0-30 mM arginine by an”

P. acidipropionici [3] = assay: PA production of P. acidipropionici with amino acid addition (fermentation, HPLC analysis); settings: 30° C., 150 h
Procedure: To determine the effects of adding amino acids on PA production of P. acidipropionici, P. acidipropionici was inoculated with sterile seed medium in anaerobic jars. The anaerobic jars were incubated at 30° C. for 60 h. The culture broth was then transferred into anaerobic jars containing fresh culture medium. The PA fermentations with culture medium with or without addition of arginine and aspartic acid. The PA fermentations with culture medium without addition of arginine and aspartic acid were used as control.
The culture medium: 10 g/L yeast extract, 5 g/L tryptone, 1.5 g/L KH2PO4, 2.5 g/L K2HPO4, 25 g/L glycerol, 10 mg/L CoCl2, 30 g/L CaCO3, 5-30 mM arginine and/or 5-30 mM aspartic acid, pH 7.0.
(§2) To determine the effects of adding arginine on PA production of P. acidipropionici, the strains were inoculated with an inoculum size of 1% (v/v) into anaerobic jars containing 100 mL sterile seed medium. And then the seed culture was inoculated with an inoculum size of 10% (v/v) into anaerobic jars (volume: 100 mL) containing 50 mL culture medium into which certain amount of arginine was added. The anaerobic jars were incubated at 30° C. for 150 h.
(§3) Fermentation broth was centrifuged at 8000 rpm for 5 min, and the supernatant liquid was collected for analysis of PA. The supernatant liquid was diluted by 10 times with 3.68 mol/L sulphuric acid and then filtered with 0.22 μm pore size filter. The samples were analyzed by HPLC. As shown in Table 1 and FIG. 2, addition of amino acids increased PA production.
as §2, with “aspartic acid” for “arginine”, “hours.” for “h.”
as §3, with “Table 2” for “Table 1”

[4] = amino acid concentration 10 mM in culture medium
[5] = amino acid concentration 20 mM in culture medium
[6] = amino acid concentration 30 mM in culture medium

| SMILES | PA production (P. acidipropionici [1]; 30 mM added at the logarithmic phase of fermentation) | PA production (P. acidipropionici [1]; 30 mM added at the stable phase of fermentation) | Acid tolerance (P. acidipropionici [2]; amino acid concentration 10 mM) | Acid tolerance (P. acidipropionici [2]; amino acid concentration 20 mM) | Acid tolerance (P. acidipropionici [2]; amino acid concentration 30 mM) | increase of the acid concentration that P. acidipropionici can tolerate (P. acidipropionici [2]) | PA production (P. acidipropionici [3]; [4]) | PA production (P. acidipropionici [3]; [5]) | PA production (P. acidipropionici [3]; [6]) | PA production (P. acidipropionici [1]; 20 mM added at the logarithmic phase of fermentation) | PA production (P. acidipropionici [1]; 20 mM added at the stable phase of fermentation) |
| --- | --- | --- | --- | --- | --- | --- | --- | --- | --- | --- | --- |
| N=C(N)NCCC[C@H](N)C(=O)O [Arginine, arginine] | 12.60 g/L | 10.65 g/L | 3 g/L | 4 g/L | 4 g/L | 60% | 10.66 g/L | 10.60 g/L | 13.99 g/L | – | – |
| N[C@@H](CC(=O)O)C(=O)O [Aspartic acid, aspartic acid] | – | – | 2.5 g/L | 3 g/L | 3 g/L | 20% | 12.54 g/L | 12.97 g/L | 12.87 g/L | 12.75 g/L | 10.66 g/L |
